Data reported in patent US20040054130A1, “Insulin potentiating peptides” (priority 2000, published 2004).
Ends that are not written are not given here.

Experiments:
normal male Wistar rats = assay: Intravenous insulin tolerance test (IVITT); assay type: in vivo, rat; conditions: 5 μmol/kg i.v.; for Reduction in Blood Glucose: 0.1 U insulin/kg
Description: IVITTs (0.1 U insulin/kg body weight) were performed on overnight-fasted Wistar male rats as previously described (Lim et al, 1992). Blood samples were taken for glucose estimation at 15, 30, 45, 60 min after the commencement of the tests. Six animals in each group were used.
IVITTs were performed on normal male Wistar rats after a single intravenous (i.v.) injection of the hGH peptide analogues at a dose of 5 μmol/kg body weight. The insulin-potentiating effects of peptides 6, 7, 8 and 10 on decreasing blood glucose levels of treated animals became significant since 30 min after the commencement of the test. Bioactivity was retained when the Arg^8 or Phe^10 residue of Asu^11-hGH(6-13) peptide was substituted with Lys or Tyr respectively (1.92±0.17 or 1.62±0.18 vs. 1.65±0.12 mmol/L at 45 min), as shown in Table 3. However, no insulin-potentiating effect was observed when either Arg^8 or Phe^10 was substituted by Gly (0.92±0.08 or 1.08±0.08 mmol/L respectively vs. 1.00±0.10 mmol/L of control at 45 min). Asu^11-hGH(8-13) also elicited this insulin-potentiating effect, but with lower potency.

[1] = system: insulin-resistant Zucker fatty (fa/fa) rats; conditions: glucose clamp technique; cited from earlier work
[2] = biological target: insulin receptor tyrosine kinase (Homo sapiens, UniProt P06213); conditions: cited from earlier work

Question: With “Leu-Ser-Arg-Leu-Phe-Asu-Asn-Ala (LSRLFDNA-NH2; not fully specified; printed as Leu-Ser-Arg-Leu-Phe-Asu-Asn-Ala) [Peptide 7]” as the substance, how does the “insulin-potentiating effect on decreasing blood glucose in IVITT (in words)” value (normal male Wistar rats; from 30 min after commencement) read?
Answer: The value was “significant”.

Question: What about the “Reduction in Blood Glucose” value (normal male Wistar rats; 15 min) of the same substance?
Answer: Its value is 1.08 ± 0.09 mmol/L.

Question: What about the “Reduction in Blood Glucose” value (normal male Wistar rats; 30 min) of the same substance?
Answer: The value was 1.38 ± 0.13 mmol/L.

Question: What about the “Reduction in Blood Glucose” value (normal male Wistar rats; 45 min) of the same substance?
Answer: The value was 1.65 ± 0.12 mmol/L.

Question: And the “Reduction in Blood Glucose” value (normal male Wistar rats; 45 min, listed as Asu^11-hGH(6-13))?
Answer: The value was 1.65 ± 0.12 mmol/L.

Question: And the “Reduction in Blood Glucose” value (normal male Wistar rats; 60 min)?
Answer: The value was 1.77 ± 0.19 mmol/L.

Question: What about the glucose tolerance [1] of the same substance?
Answer: Its glucose tolerance is “improve glucose tolerance”.

Question: What about the “effect on insulin receptor tyrosine kinase activity” value [2] of the same substance?
Answer: The value was “stimulating”.
